Data as given in ChEMBL document CHEMBL3885881, “DrugMatrix”.

Species on record: Rattus norvegicus
Assay: DrugMatrix - Regimen: Daily Repeat
Assay type: toxicity, organism-based, Sprague-Dawley
Parameters: regimen Daily Repeat, gender Male, age 6-8 weeks
Settings: in vivo, po, route oral GAVAGE, vehicle .5 % CMC; for ABSOLUTE BASOPHIL / ABSOLUTE EOSINOPHIL / ABSOLUTE LYMPHOCYTE / ABSOLUTE MONOCYTE / ABSOLUTE SEGMENTED NEUTROPHIL / BASOPHIL / EOSINOPHIL / ERYTHROCYTE COUNT / HEMATOCRIT / HEMOGLOBIN / LEUKOCYTE COUNT / LYMPHOCYTE / MEAN CORPUSCULAR HEMOGLOBIN / MEAN CORPUSCULAR HEMOGLOBIN CONCENTRATION / MEAN CORPUSCULAR VOLUME / MONOCYTE / NEUTROPHIL / NUCLEATED RED BLOOD CELLS / PLATELET COUNT: tissue Blood; for ALANINE AMINOTRANSFERASE / ALBUMIN / ALKALINE PHOSPHATASE / ASPARTATE AMINOTRANSFERASE / BLOOD UREA NITROGEN / CARBON DIOXIDE / CHLORIDE / CHOLESTEROL / CREATINE PHOSPHOKINASE / CREATININE / GLUCOSE / LACTATE DEHYDROGENASE / LIPASE / PHOSPHORUS / POTASSIUM / SODIUM / TOTAL BILIRUBIN / TOTAL PROTEIN / URIC ACID: tissue Plasma
[1] = 0 mg/kg, 72 h, dose level Control, time 3 day
[2] = 0 mg/kg, 120 h, dose level Control, time 5 day
[3] = 3 mg/kg, 72 h, dose level Low, time 3 day

## O=c1[nH]cc(F)c(=O)[nH]1 [FLUOROURACIL]
[1]
  ABSOLUTE BASOPHIL: 0 CELLS/uL
  ABSOLUTE EOSINOPHIL: 130.33 CELLS/uL
  ABSOLUTE LYMPHOCYTE: 10030.67 CELLS/uL
  ABSOLUTE MONOCYTE: 41 CELLS/uL
  ABSOLUTE SEGMENTED NEUTROPHIL: 1298 CELLS/uL
  BASOPHIL: 0%
  EOSINOPHIL: 1%
  ERYTHROCYTE COUNT: 5.22 x10E6/uL
  HEMATOCRIT: 33.53%
  HEMOGLOBIN: 12.73 G/DL
  LEUKOCYTE COUNT: 11.5 x10E3/uL
  LYMPHOCYTE: 87.67%
  MEAN CORPUSCULAR HEMOGLOBIN: 24.45 pg
  MEAN CORPUSCULAR HEMOGLOBIN CONCENTRATION: 37.97 G/DL
  MEAN CORPUSCULAR VOLUME: 64.33 fL
  MONOCYTE: 0.33%
  NEUTROPHIL: 11%
  NUCLEATED RED BLOOD CELLS: 0 /100WBC
  PLATELET COUNT: 1310.5 x10E3/uL
  ALANINE AMINOTRANSFERASE: 52 u/L
  ALBUMIN: 4.22 G/DL
  ALKALINE PHOSPHATASE: 340.17 u/L
  ASPARTATE AMINOTRANSFERASE: 87.5 u/L
  BLOOD UREA NITROGEN: 15.17 mg/dL
  CARBON DIOXIDE: 25.5 mmol/L
  CHLORIDE: 101.83 MEQ/L
  CHOLESTEROL: 68.17 mg/dL
  CREATINE PHOSPHOKINASE: 379.67 u/L
  CREATININE: 0.17 mg/dL
  GLUCOSE: 181.67 mg/dL
  LACTATE DEHYDROGENASE: 256.17 u/L
  LIPASE: 8 u/L
  PHOSPHORUS: 12.1 mg/dL
  POTASSIUM: 5.88 MEQ/L
  SODIUM: 143.67 MEQ/L
  TOTAL BILIRUBIN: 0.18 mg/dL
  TOTAL PROTEIN: 5.92 G/DL
  URIC ACID: 1.7 mg/dL
[2]
  ABSOLUTE BASOPHIL: 0 CELLS/uL
  ABSOLUTE EOSINOPHIL: 31 CELLS/uL
  ABSOLUTE LYMPHOCYTE: 9599.17 CELLS/uL
  ABSOLUTE MONOCYTE: 52.83 CELLS/uL
  ABSOLUTE SEGMENTED NEUTROPHIL: 1050.33 CELLS/uL
  BASOPHIL: 0%
  EOSINOPHIL: 0.33%
  ERYTHROCYTE COUNT: 5.53 x10E6/uL
  HEMATOCRIT: 35.8%
  HEMOGLOBIN: 13.53 G/DL
  LEUKOCYTE COUNT: 10.73 x10E3/uL
  LYMPHOCYTE: 89%
  MEAN CORPUSCULAR HEMOGLOBIN: 24.47 pg
  MEAN CORPUSCULAR HEMOGLOBIN CONCENTRATION: 37.82 G/DL
  MEAN CORPUSCULAR VOLUME: 64.7 fL
  MONOCYTE: 0.5%
  NEUTROPHIL: 10.17%
  NUCLEATED RED BLOOD CELLS: 0 /100WBC
  PLATELET COUNT: 1028.5 x10E3/uL
  ALANINE AMINOTRANSFERASE: 45.33 u/L
  ALBUMIN: 4.33 G/DL
  ALKALINE PHOSPHATASE: 351.83 u/L
  ASPARTATE AMINOTRANSFERASE: 73.5 u/L
  BLOOD UREA NITROGEN: 17.83 mg/dL
  CARBON DIOXIDE: 24.67 mmol/L
  CHLORIDE: 100 MEQ/L
  CHOLESTEROL: 67 mg/dL
  CREATINE PHOSPHOKINASE: 284 u/L
  CREATININE: 0.2 mg/dL
  GLUCOSE: 152.33 mg/dL
  LACTATE DEHYDROGENASE: 108.67 u/L
  LIPASE: 8.17 u/L
  PHOSPHORUS: 11.17 mg/dL
  POTASSIUM: 6.14 MEQ/L
  SODIUM: 144.68 MEQ/L
  TOTAL BILIRUBIN: 0.22 mg/dL
  TOTAL PROTEIN: 6.08 G/DL
  URIC ACID: 1.27 mg/dL
[3]
  ABSOLUTE BASOPHIL: 0 CELLS/uL
  ABSOLUTE EOSINOPHIL: 34 CELLS/uL
  ABSOLUTE LYMPHOCYTE: 9566.33 CELLS/uL
  ABSOLUTE MONOCYTE: 34 CELLS/uL
  ABSOLUTE SEGMENTED NEUTROPHIL: 1732.33 CELLS/uL
  BASOPHIL: 0%
  EOSINOPHIL: 0.33%
  ERYTHROCYTE COUNT: 5.74 x10E6/uL
  HEMATOCRIT: 36.43%
  HEMOGLOBIN: 13.5 G/DL
  LEUKOCYTE COUNT: 11.37 x10E3/uL
  LYMPHOCYTE: 84%
  MEAN CORPUSCULAR HEMOGLOBIN: 23.57 pg
  MEAN CORPUSCULAR HEMOGLOBIN CONCENTRATION: 37.07 G/DL
  MEAN CORPUSCULAR VOLUME: 63.6 fL
  MONOCYTE: 0.33%
  NEUTROPHIL: 15.33%
  NUCLEATED RED BLOOD CELLS: 0 /100WBC
  PLATELET COUNT: 984 x10E3/uL
  ALANINE AMINOTRANSFERASE: 53.67 u/L
  ALBUMIN: 4.33 G/DL
  ALKALINE PHOSPHATASE: 357 u/L
  ASPARTATE AMINOTRANSFERASE: 102 u/L
  BLOOD UREA NITROGEN: 15 mg/dL
  CARBON DIOXIDE: 26 mmol/L
  CHLORIDE: 100.67 MEQ/L
  CHOLESTEROL: 72.33 mg/dL
  CREATINE PHOSPHOKINASE: 938.33 u/L
  CREATININE: 0.19 mg/dL
  GLUCOSE: 156 mg/dL
  LACTATE DEHYDROGENASE: 212 u/L
  LIPASE: 8.67 u/L
  PHOSPHORUS: 12.53 mg/dL
  POTASSIUM: 6.78 MEQ/L
  SODIUM: 143.77 MEQ/L
  TOTAL BILIRUBIN: 0.23 mg/dL
  TOTAL PROTEIN: 6.07 G/DL
